According to US20240246967A1, “AXL COMPOUNDS” (ARCUS BIOSCIENCES, INC., priority 2021, published 2024):

Molecular target: T1, human MER (Homo sapiens, UniProt Q12866)
T1 construct: purchased Invitrogen
T1 sequence (Q12866 21-999): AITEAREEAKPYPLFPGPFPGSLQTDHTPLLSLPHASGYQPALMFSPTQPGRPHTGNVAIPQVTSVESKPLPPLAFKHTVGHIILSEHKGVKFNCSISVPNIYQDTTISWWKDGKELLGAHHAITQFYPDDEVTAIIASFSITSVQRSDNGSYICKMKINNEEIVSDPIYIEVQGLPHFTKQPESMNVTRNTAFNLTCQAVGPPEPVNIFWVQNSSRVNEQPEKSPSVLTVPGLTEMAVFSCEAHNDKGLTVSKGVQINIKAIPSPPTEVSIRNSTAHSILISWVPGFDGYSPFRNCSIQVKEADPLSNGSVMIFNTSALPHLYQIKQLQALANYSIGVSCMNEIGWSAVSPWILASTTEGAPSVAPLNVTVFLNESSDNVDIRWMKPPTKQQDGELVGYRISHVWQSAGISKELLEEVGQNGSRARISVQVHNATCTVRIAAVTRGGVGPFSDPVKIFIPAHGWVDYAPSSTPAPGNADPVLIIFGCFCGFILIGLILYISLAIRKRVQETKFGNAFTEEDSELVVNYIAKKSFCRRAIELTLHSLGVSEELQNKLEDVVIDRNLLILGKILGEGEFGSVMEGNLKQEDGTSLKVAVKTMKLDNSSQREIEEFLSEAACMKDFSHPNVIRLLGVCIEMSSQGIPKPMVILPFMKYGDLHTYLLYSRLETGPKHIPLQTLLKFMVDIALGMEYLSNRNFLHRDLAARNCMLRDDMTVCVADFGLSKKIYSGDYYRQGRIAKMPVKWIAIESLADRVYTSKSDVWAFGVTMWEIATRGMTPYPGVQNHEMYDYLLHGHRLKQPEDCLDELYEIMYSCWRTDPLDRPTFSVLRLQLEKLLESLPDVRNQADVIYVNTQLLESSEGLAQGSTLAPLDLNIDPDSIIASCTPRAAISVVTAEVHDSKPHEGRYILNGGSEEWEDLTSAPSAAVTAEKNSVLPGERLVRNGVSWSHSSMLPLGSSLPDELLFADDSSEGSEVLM
Experiment: HTRF KinEASE-TK biochemical potency assay, MER
Details: 1 nM MER, 700 μM ATP, 800 nM TK Substrate-biotin
Method in brief: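 Recombinant human kinase preincubated 1 h at RT with compound, then reacted 2 h at RT with final 5 nM AXL or 1 nM TYRO3/MER, 800 nM TK Substrate-biotin and 700 μM ATP in HEPES pH 7.4, 10 mM MgCl2, 1% DMSO. Phosphorylation read by HTRF 665/620 ratio, expressed as percent activity.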

Compared with C[C@@H]1CCCN1C1(C)CCc2ccc(-c3cnc4[nH]cc(-c5ccc(S(=O)(=O)C6CC6)cc5)c4c3)cc2CC1 (stereo partly drawn) [Example 105, (2R)-1-(2-{3-[4-(Cyclopropanesulfonyl)phenyl]-1H-pyrrolo[2,3-b]pyridin-5-yl}-7-methyl-6,7,8,9-tetrahydro-5H-benzo[7]annulen-7-yl)-2-methylpyrrolidine], COCCS(=O)(=O)c1ccc(-c2n[nH]c3ncc(-c4ccc5c(c4)CCC(C)(N4CCC[C@H]4C)CC5)cc23)cc1 (stereo partly drawn) [Example 111, (2R)-1-(2-{3-[4-(2-Methoxyethanesulfonyl)phenyl]-1H-pyrazolo[3,4-b]pyridin-5-yl}-7-methyl-6,7,8,9-tetrahydro-5H-benzo[7]annulen-7-yl)-2-methylpyrrolidine] is lower in IC50: greater than 1 µM for the first, 0.1 to 1 µM for the second. The second is the more potent here.

C[C@@H]1CCCN1C1(C)CCc2ccc(-c3cnc4[nH]nc(-c5ccc(N6CCOCC6)cc5)c4c3)cc2CC1 (stereo partly drawn) [Example 107, 4-[4-(5-{7-Methyl-7-[(2R)-2-methylpyrrolidin-1-yl]-6,7,8,9-tetrahydro-5H-benzo[7]annulen-2-yl}-1H-pyrazolo[3,4-b]pyridin-3-yl)phenyl]morpholine] and C[C@@H]1CCCN1C1(C)CCc2ccc(-c3cnc4[nH]nc(-c5ccc(C(=O)N6CCCC6)cc5)c4c3)cc2CC1 (stereo partly drawn) [Example 118, (2R)-2-Methyl-1-(7-methyl-2-{3-[4-(pyrrolidine-1-carbonyl)phenyl]-1H-pyrazolo[3,4-b]pyridin-5-yl}-6,7,8,9-tetrahydro-5H-benzo[7]annulen-7-yl)pyrrolidine] cannot be ordered by IC50: greater than 1 µM for the first, greater than 1 µM for the second.

Compared with COCCNCc1ccc(-c2n[nH]c3ncc(-c4ccc5c(c4)CCC(C)(N4CCC[C@H]4C)CC5)cc23)cc1 (stereo partly drawn) [Example 108, (2-Methoxyethyl)({[4-(5-{7-methyl-7-[(2R)-2-methylpyrrolidin-1-yl]-6,7,8,9-tetrahydro-5H-benzo[7]annulen-2-yl}-1H-pyrazolo[3,4-b]pyridin-3-yl)phenyl]methyl})amine], COCCOc1ccc(-c2n[nH]c3ncc(-c4ccc5c(c4)CCC(C)(N4CCC[C@H]4C)CC5)cc23)cc1 (stereo partly drawn) [Example 110, 3-(4-(2-Methoxyethoxy)phenyl)-5-(7-methyl-7-((R)-2-methylpyrrolidin-1-yl)-6,7,8,9-tetrahydro-5H-benzo[7]annulen-2-yl)-1H-pyrazolo[3,4-b]pyridine] is lower in IC50: greater than 1 µM for the first, 0.1 to 1 µM for the second. The second is the more potent here.

C[C@@H]1CCCN1C1CCc2ccc(-c3cnc4[nH]nc(-c5ccc(S(=O)(=O)C6CC6)cc5)c4c3)cc2C(C)(C)C1 (stereo partly drawn) [Example 109, (2R)-1-(2-{3-[4-(Cyclopropanesulfonyl)phenyl]-1H-pyrazolo[3,4-b]pyridin-5-yl}-9,9-dimethyl-6,7,8,9-tetrahydro-5H-benzo[7]annulen-7-yl)-2-methylpyrrolidine] and CC1(N2CCc3ccc(-c4cnc5[nH]nc(-c6ccc(S(=O)(=O)C7CC7)cc6)c5c4)cc3CC2)CCCC1 [Example 120, 7-{3-[4-(Cyclopropanesulfonyl)phenyl]-1H-pyrazolo[3,4-b]pyridin-5-yl}-3-(1-methylcyclopentyl)-2,3,4,5-tetrahydro-1H-3-benzazepine] cannot be ordered by IC50: greater than 1 µM for the first, greater than 1 µM for the second.

O=C([C@@H]1CCCN1)N1CCc2ccc(-c3cnc4[nH]nc(-c5ccc(S(=O)(=O)C6CC6)cc5)c4c3)cc2CC1 [Example 112, 7-{3-[4-(Cyclopropanesulfonyl)phenyl]-1H-pyrazolo[3,4-b]pyridin-5-yl}-3-[(2S)-pyrrolidine-2-carbonyl]-2,3,4,5-tetrahydro-1H-3-benzazepine] and O=C([C@H]1CCCN1)N1CCc2ccc(-c3cnc4[nH]nc(-c5ccc(S(=O)(=O)C6CC6)cc5)c4c3)cc2CC1 [Example 113, 7-{3-[4-(Cyclopropanesulfonyl)phenyl]-1H-pyrazolo[3,4-b]pyridin-5-yl}-3-[(2R)-pyrrolidine-2-carbonyl]-2,3,4,5-tetrahydro-1H-3-benzazepine] cannot be ordered by IC50: greater than 1 µM for the first, greater than 1 µM for the second.

COc1cc(-c2n[nH]c3ncc(-c4ccc5c(c4)CCC(C)(N4CCC[C@H]4C)CC5)cc23)ccc1OC[C@H]1COCCO1 (stereo partly drawn) [Example 114, (2R)-1-{2-[3-(4-{[(2R)-1,4-Dioxan-2-yl]methoxy}-3-methoxyphenyl)-1H-pyrazolo[3,4-b]pyridin-5-yl]-7-methyl-6,7,8,9-tetrahydro-5H-benzo[7]annulen-7-yl}-2-methylpyrrolidine] and C[C@@H]1CCCN1C1(C)CCc2ccc(-c3cnc4[nH]nc(-c5ccc(C(=O)N[C@H]6CCOC6)cc5)c4c3)cc2CC1 (stereo partly drawn) [Example 117, 4-(5-{7-Methyl-7-[(2R)-2-methylpyrrolidin-1-yl]-6,7,8,9-tetrahydro-5H-benzo[7]annulen-2-yl}-1H-pyrazolo[3,4-b]pyridin-3-yl)-N-[(3S)-oxolan-3-yl]benzamide] cannot be ordered by IC50: greater than 1 µM for the first, greater than 1 µM for the second.

CC1(N[C@H]2CCOC2)CCc2ccc(-c3cnc4[nH]nc(-c5ccc(S(=O)(=O)C6CC6)cc5)c4c3)cc2CC1 (stereo partly drawn) [Example 115, (3S)-N-(2-{3-[4-(Cyclopropanesulfonyl)phenyl]-1H-pyrazolo[3,4-b]pyridin-5-yl}-7-methyl-6,7,8,9-tetrahydro-5H-benzo[7]annulen-7-yl)oxolan-3-amine] and CC(C)(C)S(=O)(=O)c1ccc(-c2n[nH]c3ncc(-c4ccc5c(c4)CC[C@@H](N4C6COCC4C6)CC5)cc23)cc1 [Example 124, 6-[(7S)-2-{3-[4-(2-methylpropane-2-sulfonyl)phenyl]-2H-pyrazolo[3,4-b]pyridin-5-yl}-6,7,8,9-tetrahydro-5H-benzo[7]annulen-7-yl]-3-oxa-6-azabicyclo[3.1.1]heptane] fall in the same range of IC50: 0.1 to 1 µM for the first, 0.1 to 1 µM for the second.

Cc1cc(-c2n[nH]c3ncc(-c4ccc5c(c4)CCN(C4CC4)CC5)cc23)ccc1C(=O)N1CCNCC1 [Example 119, 3-Cyclopropyl-7-{3-[3-methyl-4-(piperazine-1-carbonyl)phenyl]-1H-pyrazolo[3,4-b]pyridin-5-yl}-2,3,4,5-tetrahydro-1H-3-benzazepine] and O=C1OCCN1c1ccc(-c2n[nH]c3ncc(-c4ccc5c(c4)CC[C@@H](N4C6COCC4C6)CC5)cc23)cc1 [Example 121, 3-(4-{5-[(7S)-7-{3-oxa-6-azabicyclo[3.1.1]heptan-6-yl}-6,7,8,9-tetrahydro-5H-benzo[7]annulen-2-yl]-2H-pyrazolo[3,4-b]pyridin-3-yl}phenyl)-1,3-oxazolidin-2-one] cannot be ordered by IC50: greater than 1 µM for the first, greater than 1 µM for the second.

O=C1CCCN1c1ccc(-c2n[nH]c3ncc(-c4ccc5c(c4)CC[C@@H](N4C6COCC4C6)CC5)cc23)cc1 [Example 122, 1-(4-{5-[(7S)-7-{3-oxa-6-azabicyclo[3.1.1]heptan-6-yl}-6,7,8,9-tetrahydro-5H-benzo[7]annulen-2-yl]-2H-pyrazolo[3,4-b]pyridin-3-yl}phenyl)pyrrolidin-2-one] and c1cc2c(cc1-c1cnc3[nH]nc(-c4ccc(N5C[C@H]6C[C@@H]5CO6)cc4)c3c1)CC[C@@H](N1C3COCC1C3)CC2 [Example 126, (1R,4R)-5-(4-{5-[(7S)-7-{3-oxa-6-azabicyclo[3.1.1]heptan-6-yl}-6,7,8,9-tetrahydro-5H-benzo[7]annulen-2-yl]-2H-pyrazolo[3,4-b]pyridin-3-yl}phenyl)-2-oxa-5-azabicyclo[2.2.1]heptane] cannot be ordered by IC50: greater than 1 µM for the first, greater than 1 µM for the second.

Compared with COCCOc1ccc(-c2n[nH]c3ncc(-c4ccc5c(c4)CC[C@@H](N4C6COCC4C6)CC5)cc23)cc1 [Example 123, 6-[(7S)-2-{3-[4-(2-methoxyethoxy)phenyl]-2H-pyrazolo[3,4-b]pyridin-5-yl}-6,7,8,9-tetrahydro-5H-benzo[7]annulen-7-yl]-3-oxa-6-azabicyclo[3.1.1]heptane], CN(C)C(=O)c1ccc(-c2n[nH]c3ncc(-c4ccc5c(c4)CC[C@@H](N4C6COCC4C6)CC5)cc23)cc1 [Example 125, N,N-Dimethyl-4-{5-[(7S)-7-{3-oxa-6-azabicyclo[3.1.1]heptan-6-yl}-6,7,8,9-tetrahydro-5H-benzo[7]annulen-2-yl]-2H-pyrazolo[3,4-b]pyridin-3-yl}benzamide] is lower in IC50: greater than 1 µM for the first, 0.1 to 1 µM for the second.

FC1CN(c2ccc(-c3c[nH]c4ncc(-c5ccc6c(c5)CC[C@@H](N5C7COCC5C7)CC6)cc34)cc2)C1 [Example 127, 6-[(7S)-2-{3-[4-(3-fluoroazetidin-1-yl)phenyl]-1H-pyrrolo[2,3-b]pyridin-5-yl}-6,7,8,9-tetrahydro-5H-benzo[7]annulen-7-yl]-3-oxa-6-azabicyclo[3.1.1]heptane] showed an IC50 greater than 1 µM.
